Results taken from paper PMC6691788, “Design and synthesis of phthalazine-based compounds as potent anticancer agents with potential antiangiogenic activity via VEGFR-2 inhibition” (Journal of Enzyme Inhibition and Medicinal Chemistry, 2019).

Legend:
[1] = test system: K-562; assay: NCI 60 cell panel SRB screen; assay type: cell-based; conditions: Homo sapiens, K562; K-562, single dose 10 μM; read-out: percent cell growth promotion
[2] = test system: DU-145; assay: NCI 60 cell panel SRB screen; assay type: cell-based; conditions: Homo sapiens; DU-145, single dose 10 μM; read-out: percent cell growth promotion
[3] = target: T1, VEGFR-2 tyrosine kinase (Homo sapiens, UniProt P35968); assay: In vitro VEGFR-2 tyrosine kinase assay (BPS Bioscience); assay type: biochemical; conditions: read-out: VEGFR-2 % inhibition; 10 μM concentration
T1 construct: purchased BPS Bioscience 40301
T1 sequence (P35968 20-1356): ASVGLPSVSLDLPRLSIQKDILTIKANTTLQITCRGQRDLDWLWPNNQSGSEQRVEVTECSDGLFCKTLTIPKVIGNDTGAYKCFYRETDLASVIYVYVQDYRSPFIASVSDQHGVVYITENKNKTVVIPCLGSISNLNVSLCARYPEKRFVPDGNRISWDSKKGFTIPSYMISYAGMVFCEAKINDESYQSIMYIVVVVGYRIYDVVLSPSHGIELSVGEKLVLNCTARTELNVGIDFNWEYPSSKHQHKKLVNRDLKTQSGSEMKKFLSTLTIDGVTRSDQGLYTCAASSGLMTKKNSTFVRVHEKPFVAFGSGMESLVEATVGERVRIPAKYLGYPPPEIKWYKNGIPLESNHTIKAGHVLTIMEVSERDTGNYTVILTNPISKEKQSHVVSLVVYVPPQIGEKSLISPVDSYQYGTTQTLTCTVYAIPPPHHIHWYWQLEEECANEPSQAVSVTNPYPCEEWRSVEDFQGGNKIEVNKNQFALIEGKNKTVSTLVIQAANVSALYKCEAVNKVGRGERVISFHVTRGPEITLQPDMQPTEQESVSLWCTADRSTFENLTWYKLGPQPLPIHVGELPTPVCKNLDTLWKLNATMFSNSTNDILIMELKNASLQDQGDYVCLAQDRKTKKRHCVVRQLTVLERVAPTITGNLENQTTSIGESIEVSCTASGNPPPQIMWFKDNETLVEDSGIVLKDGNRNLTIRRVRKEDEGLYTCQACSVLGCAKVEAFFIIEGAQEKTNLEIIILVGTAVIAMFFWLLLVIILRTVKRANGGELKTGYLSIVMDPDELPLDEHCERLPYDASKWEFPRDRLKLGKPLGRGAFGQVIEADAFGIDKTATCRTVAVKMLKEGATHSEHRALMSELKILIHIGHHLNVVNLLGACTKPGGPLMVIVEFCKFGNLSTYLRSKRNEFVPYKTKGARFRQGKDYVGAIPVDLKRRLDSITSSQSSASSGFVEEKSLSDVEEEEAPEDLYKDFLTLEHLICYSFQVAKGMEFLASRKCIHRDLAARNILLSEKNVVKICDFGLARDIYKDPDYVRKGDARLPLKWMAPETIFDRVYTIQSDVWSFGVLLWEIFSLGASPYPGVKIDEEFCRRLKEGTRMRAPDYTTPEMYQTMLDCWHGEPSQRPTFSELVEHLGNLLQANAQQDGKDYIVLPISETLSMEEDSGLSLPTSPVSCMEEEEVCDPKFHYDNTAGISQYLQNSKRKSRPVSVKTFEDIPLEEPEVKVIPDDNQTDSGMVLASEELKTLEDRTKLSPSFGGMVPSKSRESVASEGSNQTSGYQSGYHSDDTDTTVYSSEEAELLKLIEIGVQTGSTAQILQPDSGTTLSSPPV
Outline: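 For IC50, ADP formation after a 30-min 30 °C reaction was detected by ADP-Glo luminescence in duplicate, blank-subtracted and fitted as log inhibitor versus normalised response. The 10 µM single-dose test instead measured remaining ATP (Kinase-Glo Plus) after 40 min at 30 °C with poly(Glu,Tyr) substrate, 10 μM ATP, pH 7.4, 1% DMSO.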

[4] = test system: 786-0; assay: NCI 60 cell panel SRB screen; assay type: cell-based; conditions: Homo sapiens; 786-0, single dose 10 μM; read-out: percent cell growth promotion
[5] = test system: SW-620; assay: NCI 60 cell panel SRB screen; assay type: cell-based; conditions: Homo sapiens; SW-620, single dose 10 μM; read-out: percent cell growth promotion
[6] = test system: OVCAR-3; assay: NCI 60 cell panel SRB screen; assay type: cell-based; conditions: Homo sapiens; OVCAR-3, single dose 10 μM; read-out: percent cell growth promotion
[7] = test system: M14; assay: NCI 60 cell panel SRB screen; assay type: cell-based; conditions: Homo sapiens, M14, read-out: percent cell growth promotion
[8] = test system: UACC-62; assay: NCI 60 cell panel SRB screen; assay type: cell-based; conditions: Homo sapiens, UACC-62, read-out: percent cell growth promotion
[9] = test system: RPMI-8226; assay: NCI 60 cell panel SRB screen; assay type: cell-based; conditions: Homo sapiens; RPMI-8226, single dose 10 μM; read-out: percent cell growth promotion
[10] = test system: A549/ATCC; assay: NCI 60 cell panel SRB screen; assay type: cell-based; conditions: Homo sapiens, single dose 10 μM, read-out: percent cell growth promotion
[11] = test system: HCT-116; assay: NCI 60 cell panel SRB screen; assay type: cell-based; conditions: Homo sapiens; HCT-116, single dose 10 μM; read-out: percent cell growth promotion
[12] = test system: SF-295; assay: NCI 60 cell panel SRB screen; assay type: cell-based; conditions: Homo sapiens; SF-295, single dose 10 μM; read-out: percent cell growth promotion
[13] = test system: UACC-257; assay: NCI 60 cell panel SRB screen; assay type: cell-based; conditions: Homo sapiens, UACC-257, read-out: percent cell growth promotion
[14] = test system: HOP-62; assay: NCI 60 cell panel SRB screen; assay type: cell-based; conditions: Homo sapiens; HOP-62, single dose 10 μM; read-out: percent cell growth promotion
[15] = test system: OVCAR-8; assay: NCI 60 cell panel SRB screen; assay type: cell-based; conditions: Homo sapiens; OVCAR-8, single dose 10 μM; read-out: percent cell growth promotion
[16] = test system: MALME-3M; assay: NCI 60 cell panel SRB screen; assay type: cell-based; conditions: Homo sapiens, Malme-3M, read-out: percent cell growth promotion
[17] = test system: CCRF-CEM; assay: NCI 60 cell panel SRB screen; assay type: cell-based, human; conditions: Homo sapiens, single dose 10 μM, read-out: percent cell growth promotion
[18] = test system: SR; assay: NCI 60 cell panel SRB screen; assay type: cell-based; conditions: Homo sapiens, single dose 10 μM, read-out: percent cell growth promotion
[19] = test system: SK-MEL-5; assay: NCI 60 cell panel SRB screen; assay type: cell-based; conditions: Homo sapiens, SK-MEL-5, read-out: percent cell growth promotion
[20] = test system: SF-268; assay: NCI 60 cell panel SRB screen; assay type: cell-based; conditions: Homo sapiens; SF-268, single dose 10 μM; read-out: percent cell growth promotion

Work on Cc1nnc(Oc2ccc(NC(=O)Nc3ccc(Cl)cc3)cc2)c2ccccc12 [Compound 7e, 1–(4-Chlorophenyl)-3–(4-(4-methylphthalazin-1-yloxy)phenyl)urea] yielded an activity at 10 µM [1] of 61.1%, an activity at 10 µM [2] of 81.4% and an inhibition at 10 µM [3] of 14%. The activity at 10 µM [4] was 83.9%, the activity at 10 µM [5] was 95% and the activity at 10 µM [6] was 69.8%. For the same compound, the activity at 10 µM [7] was 79.4%, the activity at 10 µM [8] was 45.8% and the activity at 10 µM [9] was 55.6%. The activity at 10 µM [10] was 61.5%, the activity at 10 µM [11] was 72.5% and the activity at 10 µM [12] was 91.8%. For the same compound, the activity at 10 µM [13] was 83.9%, the activity at 10 µM [14] was 71.1% and the activity at 10 µM [15] was 76%. For the same compound, the activity at 10 µM [16] was 92.6%, the activity at 10 µM [17] was 40.2% and the activity at 10 µM [18] was 38.5%. The activity at 10 µM [19] was 70.2% and the activity at 10 µM [20] was 70.5%.
CCOC(=O)N1CCN(c2nncc3ccccc23)CC1 [Compound 8a, Ethyl 4-(phthalazin-1-yl)piperazine-1-carboxylate] was tested, and the activity at 10 µM [1] was 110%, the activity at 10 µM [2] was 104% and the inhibition at 10 µM [3] was 13%. It also gave an activity at 10 µM [4] of 106%, an activity at 10 µM [5] of 102% and an activity at 10 µM [6] of 105%. For the same compound, the activity at 10 µM [7] was 110%, the activity at 10 µM [8] was 103% and the activity at 10 µM [9] was 101%. For the same compound, the activity at 10 µM [10] was 99.6%, the activity at 10 µM [11] was 99.1% and the activity at 10 µM [12] was 102%. For the same compound, the activity at 10 µM [13] was 95.8%, the activity at 10 µM [14] was 107% and the activity at 10 µM [15] was 97.7%. The activity at 10 µM [16] was 109%, the activity at 10 µM [17] was 96.9% and the activity at 10 µM [18] was 102%. The activity at 10 µM [19] was 103% and the activity at 10 µM [20] was 104%.
